Bridge positions count the residues as written; N and C are the ends. Square brackets hold non-standard residues; d marks the D form. Peptide text beside a SMILES is read from it. 1Nal = N[C@@H](Cc1cccc2ccccc12)C(=O)O; His(π-Me) = Cn1cncc1C[C@H](N)C(=O)O; NMeY = CN[C@@H](Cc1ccc(O)cc1)C(=O)O; NMeR = CN[C@@H](CCCNC(=N)N)C(=O)O; Nle = CCCC[C@H](N)C(=O)O; Abu = CC[C@H](N)C(=O)O
How the values were obtained:
Assay type in all cases: cell-based
Details in all cases: LB broth, 5×10^5 CFU/ml, 37° C., 18 hours, scored by eye
E. coli BW25113 = assay: Minimum Inhibitory Concentration (MIC) determination, E. coli BW25113; parameters: unit not given here
Outline: (§1)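 Peptides, diluted two-fold in LB broth from 10 mM DMSO stocks, were inoculated with 5×10^5 CFU/ml of each strain. Incubation was 18 h at 37 °C without shaking. MIC is the lowest concentration preventing visible growth, scored by eye.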

E. coli 25922 IMP = assay: Minimum Inhibitory Concentration (MIC) determination, E. coli 25922 IMP
Outline: as §1

E. coli 25922 = assay: Minimum Inhibitory Concentration (MIC) determination, E. coli 25922; parameters: unit not given here
Protocol: (§2) MICs were determined by performing two-fold serial dilutions of peptides in LB broth to a final volume of 0.1 ml in round-bottom 96-well assay plates (Corning Life Sciences No 3788). Peptides were initially resuspended in 100% DMSO to 10 mM and subsequently diluted in LB medium to the appropriate concentration. Each well was inoculated with 5×10^5 CFU/ml of the screening stain and incubated at 37° C. without agitation for 18 hours. Plates were scored by eye, and the lowest compound concentration preventing visible growth was determined to be the MIC.

E. cloacae ATCC222 = assay: Minimum Inhibitory Concentration (MIC) determination, E. cloacae ATCC222; parameters: unit not given here
Protocol: as §2

K. pneumoniae ATCC43816 = assay: Minimum Inhibitory Concentration (MIC) determination, K. pneumoniae ATCC43816; parameters: unit not given here
Protocol: as §2

Structure (SMILES)	MIC E. coli BW25113 WUXI::MIC (E. coli BW25113)	MIC E. coli 25922 IMP WUXI::MIC (E. coli 25922 IMP)	MIC E. coli 25922 WUXI::MIC (E. coli 25922)	MIC E. cloacae ATCC222 WUXI::MIC (E. cloacae ATCC222)	MIC K. pneumoniae ATCC43816 Wuxi::MIC (K. pneumoniae ATCC43816)
CC[C@@H]1NC(=O)[C@H](Cc2ccccc2)NC(=O)CSC[C@@H](C(=O)NCC(N)=O)NC(=O)[C@H](C)NC(=O)[C@H](CCCNC(=N)N)NC(=O)[C@H](Cc2c[nH]cn2)NC(=O)[C@H](Cc2ccc(O)cc2)N(C)C(=O)[C@H](CCCNC(=N)N)NC(=O)[C@H](CO)NC(=O)CNC(=O)[C@H](Cc2c[nH]cn2)NC(=O)[C@H](Cc2cccc3ccccc23)NC1=O [Compound 39, (3R,6S,9S,12S,15S,18S,21S,27S,30S, 33S,36S)-N-(2-amino-2-oxo-ethyl)-36-benzyl-33-ethyl-9,18-bis(3-guanidinopropyl)-21-(hydroxymethyl)-15-[(4-hydroxyphenyl)methyl]-12,27-bis(1H-imidazol-4-ylmethyl)-6,16-dimethyl-30-(1-naphthylmethyl)-5,8,11,14,17,20,23,26,29,32,35,38-dodecaoxo-1-thia-4,7,10,13,16,19,22,25,28,31,34,37-dodecazacyclononatriacontane-3-carboxamide] ({CH2CO}-F[Abu][1Nal]HGSR[NMeY]HRACG-NH2; thioether N-12)	100	6.3	100	100	100
CC[C@@H]1NC(=O)[C@H](Cc2ccc(O)cc2)NC(=O)CSC[C@@H](C(=O)NCC(N)=O)NC(=O)[C@H](Cc2cncn2C)NC(=O)[C@H](CCCNC(=N)N)NC(=O)[C@H](Cc2c[nH]cn2)NC(=O)[C@H](Cc2ccc(O)cc2)N(C)C(=O)[C@H](CCCNC(=N)N)NC(=O)[C@H](CO)NC(=O)CNC(=O)[C@H](Cc2c[nH]cn2)NC(=O)[C@H](Cc2cccc3ccccc23)NC1=O [Compound 19, (3R,6S,9S,12S,15S,18S,21S,27S,30S, 33S,36S)-N-(2-amino-2-oxo-ethyl)-33-ethyl-9,18-bis(3-guanidinopropyl)-21-(hydroxymethyl)-15,36-bis[(4-hydroxyphenyl)methyl]-12,27-bis(1H-imidazol-4-ylmethyl)-16-methyl-6-[(3-methylimidazol-4-yl)methyl]-30-(1-naphthylmethyl)-5,8,11,14,17,20,23,26,29,32,35,38-dodecaoxo-1-thia-4,7,10,13,16,19,22,25,28,31,34,37-dodecazacyclononatriacontane-3-carboxamide] ({CH2CO}-Y[Abu][1Nal]HGSR[NMeY]HR[His(π-Me)]CG-NH2; thioether N-12)	6.3	0.0039	3.1	0.39	6.3
CC[C@@H]1NC(=O)[C@H](CO)NC(=O)CSC[C@@H](C(=O)NCC(N)=O)NC(=O)[C@H](Cc2cncn2C)NC(=O)[C@H](CCCNC(=N)N)NC(=O)[C@H](Cc2c[nH]cn2)NC(=O)[C@H](Cc2ccc(O)cc2)N(C)C(=O)[C@H](CCCNC(=N)N)NC(=O)[C@H](CO)NC(=O)CNC(=O)[C@H](Cc2c[nH]cn2)NC(=O)[C@H](Cc2cccc3ccccc23)NC1=O [Compound 21, (3R,6S,9S,12S,15S,18S,21S,27S,30S, 33S,36S)-N-(2-amino-2-oxo-ethyl)-33-ethyl-9,18-bis(3-guanidinopropyl)-21,36-bis(hydroxymethyl)-15-[(4-hydroxyphenyl)methyl]-12,27-bis(1H-imidazol-4-ylmethyl)-16-methyl-6-[(3-methylimidazol-4-yl)methyl]-30-(1-naphthylmethyl)-5,8,11,14,17,20,23,26,29,32,35,38-dodecaoxo-1-thia-4,7,10,13,16,19,22,25,28,31,34,37-dodecazacyclononatriacontane-3-carboxamide] ({CH2CO}-S[Abu][1Nal]HGSR[NMeY]HR[His(π-Me)]CG-NH2; thioether N-12)	50	0.063	50	3.1	25
CCCC[C@@H]1NC(=O)CSC[C@@H](C(=O)NCC(N)=O)NC(=O)[C@H](Cc2cncn2C)NC(=O)[C@H](CCCNC(=N)N)NC(=O)[C@H](Cc2c[nH]cn2)NC(=O)[C@H](Cc2ccc(O)cc2)N(C)C(=O)[C@H](CCCNC(=N)N)NC(=O)[C@H](CO)NC(=O)CNC(=O)[C@H](Cc2c[nH]cn2)NC(=O)[C@H](Cc2cccc3ccccc23)NC(=O)[C@H](CC)NC1=O [Compound 20] ({CH2CO}-[Nle][Abu][1Nal]HGSR[NMeY]HR[His(π-Me)]CG-NH2; thioether N-12)	25	0.0078	13	1.6	25
CC[C@@H]1NC(=O)[C@H](Cc2ccccc2)NC(=O)CSC[C@@H](C(=O)NCC(N)=O)NC(=O)[C@H](Cc2cncn2C)NC(=O)[C@H](CCCNC(=N)N)N(C)C(=O)[C@H](Cc2c[nH]cn2)NC(=O)[C@H](Cc2ccc(O)cc2)N(C)C(=O)[C@H](CCCNC(=N)N)NC(=O)[C@H](CO)NC(=O)CNC(=O)[C@H](Cc2c[nH]cn2)NC(=O)[C@H](Cc2cccc3ccccc23)NC1=O [Compound 34] ({CH2CO}-F[Abu][1Nal]HGSR[NMeY]H[NMeR][His(π-Me)]CG-NH2; thioether N-12)	100	0.063	41.667	6.3	25

Reference: patent US20240279283A1, “CYCLIC PEPTIDE ANTIBIOTICS” (priority 2021, published 2024)
